According to US10323007B1, “N2N N4-disubstituted quinazoline-2,4-diamines and uses thereof” (University of South Florida, priority 2016, dated 2019):
In brackets after ≈: the same amount, converted by molar mass. Where two headings read alike, the source gives them in different places.

Tests used:
A. baumannii 1403 = assay: MIC assay, strain 1403; assay type: cell-based, Acinetobacter baumannii; details: strain 1403; for MIC: Acinetobacter baumannii
Protocol: (§1) MIC and MBC assays were performed in this study as documented by us previously.^17,23,24,25 The A. baumannii strains used are detailed in Table 7.

A. baumannii 1649 = assay: MIC assay, strain 1649; assay type: cell-based, Acinetobacter baumannii; details: strain 1649
Protocol: as §1

A. baumannii 1650 = assay: MIC assay, strain 1650; assay type: cell-based, Acinetobacter baumannii; details: strain 1650
Protocol: as §1

A. baumannii 1651 = assay: MIC assay, strain 1651; assay type: cell-based, Acinetobacter baumannii; details: strain 1651
Protocol: as §1

A. baumannii 1652 [1] = assay: MIC assay, strain 1652; assay type: cell-based, Acinetobacter baumannii; details: strain 1652
Protocol: as §1

A. baumannii 1646 [2] = assay: minimal bactericidal concentration (MBC) assay, strain 1646; assay type: cell-based, Acinetobacter baumannii
In short: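 MBC90 determined against A. baumannii clinical isolates to distinguish bactericidal from bacteriostatic activity, following the group's previously published MIC/MBC protocol.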

A. baumannii 1652 [3] = assay: minimal bactericidal concentration (MBC) assay, strain 1652; assay type: cell-based; details: Acinetobacter baumannii, Table 8, read-out: MBC90 1652
Description: Lead quinazolines 4, 5, 26, 29, 27, and 30 were selected to be further evaluated for antimicrobial effects. The first assay utilized was a minimal bactericidal concentration (MBC) assay, to assess whether leads compounds were bacteriostatic or bactericidal. The six lead agents were screened to identify their MBC90 towards each of the six A. baumannii isolates used in the SAR studies (Table 8), however for simplicity only the representative data for isolate 1646 is detailed below (Table 6). […] Further to this, we were able to obtain complete eradication of bacterial growth for these two compounds at 1 μM for 24 and 5 μM for 25.
as §1

[4] = system: A. baumannii 1403 biofilm; assay: biofilm eradication determination assay, strain 1403; assay type: cell-based, Acinetobacter baumannii; details: 90% biofilm eradication, Table 8
Protocol: (§2) These assays were performed as described by us previously,^26,24 as follows. Each of the A. baumannii strains were grown overnight in Mueller Hinton Broth (MHB). The next day these were used to seed fresh MHB to an OD600 of 0.5, with 150 μL then added to the wells of a 96 well plate and grown for 24 hours at 37° C. After 24 hours, the planktonic bacteria were carefully removed and fresh MHB was added with increasing concentrations of lead quinazolines. After incubation at 37° C. for 24 hours, planktonic cells were removed and biofilms were washed three times with phosphate buffered saline (PBS). Biofilms were then resuspended in PBS and plated for cell viability on tryptic soy agar. Biofilm recovery was assessed compared to no drug controls, and determined as percent eradication. This was used to determine MBEC90 values (Minimal Biofilm Eradication Concentration), where the viability of cells within the biofilm was reduced by 90%.

[5] = system: A. baumannii 1646 biofilm; assay: biofilm eradication determination assay, strain 1646; assay type: cell-based, Acinetobacter baumannii
Protocol: as §2

[6] = system: A. baumannii 1649 biofilm; assay: biofilm eradication determination assay, strain 1649; assay type: cell-based, Acinetobacter baumannii; details: 90% biofilm eradication, Table 8
Protocol: as §2

[7] = system: A. baumannii 1651 biofilm; assay: biofilm eradication determination assay, strain 1651; assay type: cell-based, Acinetobacter baumannii; details: 90% biofilm eradication, Table 8
Protocol: as §2

[8] = system: A. baumannii 1652 biofilm; assay: biofilm eradication determination assay, strain 1652; assay type: cell-based, Acinetobacter baumannii; details: 90% biofilm eradication, Table 8
Protocol: as §2

A. baumannii strain 1403 = assay type: cell-based, Acinetobacter baumannii; details: serial passage, 8 days, start 0.5× MIC
Protocol: An important attribute of novel antibiotics is the ability to fend off the development of resistance towards their effects. To assess this capacity, A. baumannii strains were incubated overnight with 0.5× MIC of each of the frontrunners. The next day cells were washed and used to inoculate fresh media that contained a two-fold increase in drug. This was repeated for a total of 8 days, alongside sulfamethoxazole (SMX) and trimethoprim (TMP) controls, both of which target the same pathway as our lead agents (FIG. 2).
In order to test potential resistance towards the quinazolines, a serial passage assay was performed alongside control compounds (Sulfamethoxazole and Trimethoprim), as described by us previously.^24 A. baumannii strain 1403 was grown overnight in LB media at 37° C. The next day cultures were diluted 1:100 in fresh media and seeded into a 96-well plate. Lead quinazolines or control agents were added to respective wells at half MIC concentrations. […] These were then grown overnight, and the procedure repeated for a total of eight days.

A. baumannii 1646 [9] = assay: murine model of lethal peritonitis; assay type: in vivo, mice; details: 2 mg kg^-1 intraperitoneal, one hour post challenge, 5 days
Protocol: As a final assessment, we used a murine model of lethal A. baumannii infection to determine the efficacy of quinazolines in vivo. This was performed using frontrunner 5, which had the most promising properties from all of our biological testing. Accordingly, mice were inoculated with a lethal dose of A. baumannii via intraperitoneal injection on the right side of the abdomen. One hour post challenge, mice were treated with an intraperitoneal injection of 2 mg kg^−1 of frontrunner 5 on the left side of the abdomen. As a control, we also performed similar testing using 30 mg kg^−1 of tigecycline, which we already know our test strain to be susceptible to in vitro.
Characteristics of pre-moribund state include: hunched posture, rapid, shallow and/or labored breathing, ruffled fur, lethargy, failure to respond to stimuli, soiled anogenital area, paralysis, paresis, head tilt, circling, vocalizations, non-purposeful movements, and/or were unable to eat or drink. Those mice reaching this state prior to the completion of the 5-day infection period were euthanized. The number of mice surviving between control and treatment groups was compared and analyzed for statistical significance using a log-rank (Mantel-Cox) test.

With `CNc1nc(NCc2ccccc2)nc2ccc(C)cc12` [Compound 5, N^2-Benzyl-N^4,6-dimethylquinazoline-2,4-diamine] the MIC (A. baumannii 1403; Tables 1, 3, 4, 5 and footnotes, read-out: 1403 MIC) was 10 µM (≈ 2.78 µg/mL), the MIC (A. baumannii 1403; lead quinazolines, Table 8, read-out: MIC 1403) was 10 µM (≈ 2.78 µg/mL) and the “1403 MIC” value (A. baumannii 1403; Table 2) was 10 μm. It also gave an MIC (A. baumannii 1649; Acinetobacter baumannii, Table 2, read-out: 1649 MIC) of 25 µM (≈ 6.96 µg/mL), an MIC (A. baumannii 1649; Acinetobacter baumannii, lead quinazolines, Table 8, read-out: MIC 1649) of 21 µM (≈ 5.85 µg/mL) and an MIC (A. baumannii 1649; Tables 1, 3, 4, 5 and footnotes, read-out: 1649 MIC) of 25 µM (≈ 6.96 µg/mL). For the same compound, the MIC (A. baumannii 1650; Acinetobacter baumannii, Table 2, read-out: 1650 MIC) was 50 µM (≈ 13.9 µg/mL), the MIC (A. baumannii 1650; Acinetobacter baumannii, lead quinazolines, Table 8, read-out: MIC 1650) was 35 µM (≈ 9.74 µg/mL) and the MIC (A. baumannii 1650; Tables 1, 3, 4, 5 and footnotes, read-out: 1650 MIC) was 50 µM (≈ 13.9 µg/mL). The MIC (A. baumannii 1651; Acinetobacter baumannii, Table 2, read-out: 1651 MIC) was 10 µM (≈ 2.78 µg/mL), the MIC (A. baumannii 1651; Acinetobacter baumannii, lead quinazolines, Table 8, read-out: MIC 1651) was 1 µM (≈ 0.278 µg/mL) and the MIC (A. baumannii 1651; Tables 1, 3, 4, 5 and footnotes, read-out: 1651 MIC) was 10 µM (≈ 2.78 µg/mL). The MIC (A. baumannii 1652 [1]; Acinetobacter baumannii, Table 2, read-out: 1652 MIC) was 20 µM (≈ 5.57 µg/mL), the MIC (A. baumannii 1652 [1]; Acinetobacter baumannii, lead quinazolines, Table 8, read-out: MIC 1652) was 20 µM (≈ 5.57 µg/mL) and the MIC (A. baumannii 1652 [1]; Tables 1, 3, 4, 5 and footnotes, read-out: 1652 MIC) was 20 µM (≈ 5.57 µg/mL). It also gave an MBC (A. baumannii 1646 [2]; Acinetobacter baumannii, 1646, strain 1646, Table 8 and text, read-out: MBC90 1646) of 0.77 µM (≈ 0.214 µg/mL), an MBC (A. baumannii 1646 [2]; Acinetobacter baumannii, Table 6, representative data for isolate 1646, read-out: MBC90) of 0.8 µM (≈ 0.223 µg/mL) and an MBC (A. baumannii 1652 [3]) of 12 µM (≈ 3.34 µg/mL). For the same compound, the “MBEC90 1403” value [4] was 13 µM, the MBEC90 ([5]; Table 6, representative data for isolate 1646) was 2.8 µM and the “reduction in biofilm viability” value ([5]; at 10 μM, strain 1646) was 3 log. The “MBEC90 1646” value ([5]; strain 1646, 90% biofilm eradication, Table 8 and text) was 2.8 µM, the “MBEC90 1649” value [6] was 34 µM and the “MBEC90 1651” value [7] was 11 µM. For the same compound, the “MBEC90 1652” value [8] was 68 µM, the “increase in MIC over the 8-day test period” value (A. baumannii strain 1403) was 4 fold and the “survival rate of infected animals” value (A. baumannii 1646 [9]) was 83%.
